Molecules are shown by their SMILES.

This series in a line: gradient 5% acetonitrile 3 min, to 50% in 2 min, to 85% in 15 min, held 3 min, 100 µL/min. Particulars: column: Zorbax Extend-C18 2.1 x 50 mm; eluents: water / acetonitrile, 0.1% formic acid. The method, boiled down:
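Standards, all pure, were combined into mixtures of ~100 molecules and run at 100 μL/min on a Zorbax Extend-C18 column (2.1 × 50 mm, 1.8 μm) with water and acetonitrile, each containing 0.1% formic acid. A coupled quadrupole time-of-flight mass spectrometer operated in positive and negative ionization mode. Retention time values come from computationally picked adduct peaks, each inspected manually.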
Regarding `Cc1nc(-n2cccc2)sc1C(=O)N1CC(c2nc(-c3cccc(Cl)c3)no2)C1`, the RP-LC retention time was 1110 s.

`O=C(Nc1nc2c(s1)CN(C(=O)c1cc(-c3ccccc3)on1)CC2)C1CCCO1` (centres undefined) had an RP-LC retention time of 785 s.

Take `CC(C)CNC(=O)N1CC(n2cc(C(=O)N3CCOCC3)nn2)C1`: the RP-LC retention time was found to be 607 s.

On to `CCC(C)NC(=O)NCCn1c(-c2ccc(C)cc2)nc2cccnc21` (centres undefined), for which the RP-LC retention time turned out to be 650 s.

Consider `Cc1ccc(S(=O)(=O)N(C)C)cc1-c1nnc(-c2ccc(F)cc2)o1`, for which the RP-LC retention time is 976 s.

In turn, `CCOC(=O)c1c(NCCc2cccs2)c2ccc(Cl)cc2[nH]c1=O` registered an RP-LC retention time of 821 s.

Turning to `COc1ccc(C2=CC(c3ccc(OC)c(OC)c3)c3c(c4ccccc4oc3=O)O2)cc1OC` (centres undefined), the RP-LC retention time is 1140 s.

For `Cc1c(C2CCN(C(=O)NCc3ccccc3)CC2)noc1N`, the RP-LC retention time turned out to be 639 s.

For the molecule `CCc1nc2c(=O)n(CC(=O)N3CCN(c4ccccn4)CC3)nc(C)c2s1`, the RP-LC retention time came to 585 s.

With `CS(=O)(=O)N1CC(c2noc(-c3cccnc3)n2)C2(CCOCC2)C1` (centres undefined), the RP-LC retention time came to 660 s.

As to `CCN1CCN(CCNC(=O)C2CN(C(=O)c3cccs3)CC23CCCCC3)CC1` (centres undefined), the RP-LC retention time is 589 s.

For `O=C(c1ccc(Br)o1)N1CCN=C1N1CCN(c2ccccc2F)CC1`, the RP-LC retention time was 695 s.

In turn, `Cc1sc2ccn(Cc3ccc(F)cc3)c(=O)c2c1C(=O)NC1CC1` gave an RP-LC retention time of 759 s.

Consider `O=C(NC1CCN(c2cc(-c3ccc(Cl)cc3)[nH]n2)C1)c1ccc(Br)cc1` (centres undefined), for which the RP-LC retention time was 913 s.

`CC(C)(C)c1noc(-c2ccnc(-n3cnc(C(=O)NCc4ccccc4)c3)c2)n1` showed an RP-LC retention time of 715 s.

The molecule `Cc1ccc(CCNC(=O)c2nc(N3CCOCC3)c3ccccc3n2)cc1` came in with an RP-LC retention time of 729 s.

Consider `Cc1ccc(C2=NC3(CCN(C(=O)CSc4ccccc4)CC3)ON2)cc1`, for which the RP-LC retention time is 894 s.

Turning to `CCn1cc(-c2ccc(C)cc2)cc1C(=O)O`, the RP-LC retention time is 898 s.

Molecule `CCOc1ccc(NC(=O)N2CCC(CN3CCCC(C)C3)CC2)cc1` (centres undefined) yielded an RP-LC retention time of 639 s.

On to `Cc1ccc(-c2cn3ccccc3n2)cc1NS(=O)(=O)c1ccc(Br)cc1`, for which the RP-LC retention time turned out to be 710 s.

`COCCCNC(=O)C1c2ccccc2CC(=O)N1C(C)C` (centres undefined): the RP-LC retention time was determined as 651 s.

`CN1c2ccccc2C(=O)NC12CCN(C(=O)Nc1ccccc1F)CC2` displayed an RP-LC retention time of 695 s.

Take `O=C(CN1C(=O)CCSc2ccccc21)NCc1ccc(F)cc1`: the RP-LC retention time was determined as 794 s.

As for `Cc1cc(C)cc(NC(=O)Cc2nnc(-c3ccc4ncccc4c3)o2)c1`, the RP-LC retention time was determined as 786 s.

In turn, `Cc1cc(OCC(=O)Nc2ccc(Br)cc2F)nc(N2CCCCC2)n1` had an RP-LC retention time of 666 s.

With `O=C(NC1CCN(c2nnc3ccc(Cl)cn23)CC1)c1ccc(N2CCCC2=O)cc1`, the RP-LC retention time came to 651 s.

`COCCNC(=O)N1c2ccccc2NC2=C(C(=O)CC(C)(C)C2)C1c1ccc(OC)cc1` (centres undefined) came in with an RP-LC retention time of 704 s.

`O=C(O)Cc1sc(NCc2ccccc2)nc1-c1ccccc1` showed an RP-LC retention time of 681 s.

Regarding `CCCN(C)C[C@@H]1CC(F)(F)CN1C1CCN(S(=O)(=O)c2ccccc2F)CC1`, the RP-LC retention time was found to be 712 s.

Molecule `Cc1ccc(-c2nc(-c3cccc(-c4ccn[nH]4)c3)no2)c(C)c1` displayed an RP-LC retention time of 1150 s.

In turn, `O=S(=O)(Nc1ccc(Cn2cncn2)cc1)c1ccc(Br)cc1` showed an RP-LC retention time of 747 s.

Take `CCC(C)NC(=O)c1cc(-c2ccc(Cl)cc2)[nH]c1C` (centres undefined): the RP-LC retention time turned out to be 923 s.

The molecule `CC(=O)N(C1CCOCC1)C1CCN(S(=O)(=O)c2ccccc2)CC1` showed an RP-LC retention time of 712 s.

With `Cc1cc(C)n(Cc2nc(-c3ccc(NC(=O)CCc4ccccc4)cc3)oc2C)n1`, the RP-LC retention time was 944 s.

With `COc1cccc(Nc2c(-c3ccc(C(=O)O)cc3)nc3cnccn23)c1`, the RP-LC retention time was determined as 681 s.

With `CCN1c2ccc(F)cc2C(=O)NC12CCN(C(=O)c1ccccc1OC)CC2`, the RP-LC retention time turned out to be 759 s.

On to `O=C(CN1C(=O)C2CCCCN2c2ccc(S(=O)(=O)N3CCCC3)cc21)NC1CCCCCC1` (centres undefined), for which the RP-LC retention time came to 1000 s.

`CCNc1cc(N2CCCC(CCC(=O)NCCN3CCN(C)CC3)C2)ncn1` (centres undefined) had an RP-LC retention time of 541 s.

Turning to `O=C1NC2(CCN(C(=O)c3ccc4c(c3)OCO4)CC2)Nc2c(Cl)cccc21`, the RP-LC retention time was found to be 678 s.

As to `COCCNC(=O)Cn1ccc2c(SCc3ccc(C)cc3)nccc21`, the RP-LC retention time was 658 s.

With `CCS(=O)(=O)N1CC(=O)N(c2ccc(C)c(Cl)c2)C(C)(C(=O)NCc2ccccc2)C1` (centres undefined), the RP-LC retention time was 919 s.

The molecule `Cn1nc(C(=O)N2CCCCC2)c2c1CCN(C(=O)CCC(=O)NC1CCCC1)C2` registered an RP-LC retention time of 666 s.

`Cc1cc(C)n2nc(SCC(=O)N(c3ccccc3)c3ccccc3)nc2n1` gave an RP-LC retention time of 824 s.

`COc1ccccc1-c1nnc(-c2cccc(S(=O)(=O)N(C)C)c2)o1` displayed an RP-LC retention time of 840 s.

The molecule `CCc1ccccc1NC(=O)N1CC(c2nc(C)no2)C2(CCOCC2)C1` (centres undefined) returned an RP-LC retention time of 731 s.

`CSC1=C(C#N)C(c2ccco2)C(C(=O)Nc2ccccc2C)=C(C)N1` (centres undefined) yielded an RP-LC retention time of 786 s.

`CCC1CCCCN1CCNC(=O)c1sc2cccc(F)c2c1OC` (centres undefined) came in with an RP-LC retention time of 700 s.

Consider `COc1ccc(N2CCN(c3cc(SCC(=O)NC(C)CCc4ccccc4)ncn3)CC2)cc1` (centres undefined), for which the RP-LC retention time was found to be 1310 s.

`CCCN(CC1CCOC1)S(=O)(=O)c1ccc(C)c(F)c1` (centres undefined): the RP-LC retention time was 878 s.

Molecule `Cc1ccccc1Oc1nccnc1N1CCCC(C(=O)NCc2cccc(Br)c2)C1` (centres undefined) came in with an RP-LC retention time of 1290 s.

Molecule `O=C(c1ccsc1)N1CCCCC1c1nncn1Cc1ccccc1` (centres undefined) came in with an RP-LC retention time of 726 s.

Take `COc1ccc(C(=O)N2CCc3nc(-c4ccc(Cl)cc4)ncc3C2)cc1F`: the RP-LC retention time came out at 1050 s.

Regarding `CCCCN1N=C(C(=O)N2CCCCCC2)S(=O)(=O)c2ccc(C)cc21`, the RP-LC retention time is 1050 s.

The molecule `CCn1cnnc1C1CCN(C(=O)C2(c3ccc(OC)cc3)CC2)CC1` showed an RP-LC retention time of 599 s.

As for `O=C(NCc1ccccc1)C1CCCN(c2nnc3ccc(Cl)cn23)C1` (centres undefined), the RP-LC retention time is 739 s.

Molecule `CC(=O)c1ccc(Nc2ncnc3c2cnn3-c2ccccc2Cl)cc1` displayed an RP-LC retention time of 804 s.

In turn, `COCCN1C(=O)c2cccn2CC1CNC(=O)Nc1ccc2c(c1)OCCO2` (centres undefined) showed an RP-LC retention time of 663 s.

`CCN(CC)C(=O)c1ccc2c(c1)N(CC(=O)NC(C)C)C(=O)C1CCCCN21` (centres undefined) returned an RP-LC retention time of 735 s.

In turn, `Cc1cc(=O)n(CC(=O)NC(C)C)c(N2CCc3ccccc3C2)n1` gave an RP-LC retention time of 665 s.

(Values after the METLIN SMRT retention time set (Domingo-Almenara et al. 2019).)
